The source of these data is patent publication US7795244B2, “Penem prodrugs” (priority 2006, dated 2010).

A short description of data set [1]: Stability in the presence of porcine pancrelipase (PPE). The format is in vitro ADME. As to conditions: pig, porcine pancrelipase (ku-zyme HP) in phosphate buffer, 50 μM substrate, pH 7.4, 37° C.
For data set [2] the following is noted: human, pH 7.4.
The conditions of data set [3]: by comparison to intravenous AUCs (Table 4, Foulds et al.), cited from earlier work.
Data set [4] in a line: Stability in human intestinal juice (HIJ). The conditions noted are these: pooled human intestinal juice (4 subjects), buffered, pH 7.4.
Data set [5] deals with plasma carnitine. In words: Acute model of carnitine depletion. The format is in vivo. The conditions noted are these: 200 mg/kg BID orally for 4 days, Sprague-Dawley rats, relative to vehicle control (FIG. 1). The method, then: Of interest was a comparison between Compound 1 and […] in terms of the prodrug side chains' tendency or lack thereof to deplete plasma carnitine following metabolism of the intact prodrug. This was evaluated in vivo using an acute model of carnitine depletion in Sprague-Dawley rats. To understand the potential impact in vivo, radiolabeled pivalic acid (Compound B1 side chain) and 2-ethylbutyric acid (Compound 1 side chain) were administered orally at a dose of 200 mg/kg BID for 4 days to two separate groups of animals. […] Doses were administered in 100 mM sodium phosphate pH 6.6 at a dose volume of 10 mL/kg. Blood samples were obtained at 24 hour intervals following initiation of the study, processed for plasma and assayed for carnitine levels by LC/MS/MS. A vehicle control consisting of oral administration of an equal volume of buffer without compound was completed as a baseline comparison.

Data set [6] can be described thus: Pharmacokinetics of total radioactivity after single oral dose. The format is in vivo, Sprague-Dawley Rats. As to conditions: single oral 200 mg/kg; rats. As for the experimental part: A separate study using a single 200 mg/kg dose of each radiolabeled compound (pivalic acid and […]) was completed in rats to determine systemic exposure of dose following oral administration. The oral administration route was chosen because it is expected that the majority of hydrolysis of the prodrugs will occur within the intestine prior to entering systemic circulation. Plasma samples were obtained prior to dosing and at 0.25, 0.5, 1, 4, 8, and 24 hr post-dose. Samples were quantified for radioactivity by liquid scintillation counting and the counts were converted to […] equivalents/mL. As shown in Table 5 and FIG. 2, once absorbed, radioactivity associated with 2-ethylbutyric acid is cleared 4.5 fold faster than pivalic acid, reflecting efficient metabolic processing and excretion of the compound.

Data set [7] can be described thus: Equilibrium solubility. The format is physicochemical. The conditions noted are these: aqueous buffer, thermodynamic from solid, 25 mM phosphate buffer (pH 5), ambient temperature / 25° C. The method, then: Vials containing excess prodrug in phosphate buffer were rotated for up to 48 hours. After the equilibrium period, samples were pulled, filtered through 0.45 μm Gelman Acrodisc Nylon syringe filter and analyzed for drug concentration using HPLC. The HPLC conditions were: Column. C18, SymmetryShield RP, Waters, 4.6×150 mm, 3.5 micron; Mobile phase A: Acetonitrile; Mobile phase B: 0.1% TFA in water; Flow rate, 1 mL/min; Run Time: 30 min Inj. vol. 20 μL; Detection: 210 nm; Dissolving solvent: Acetonitrile/water (50:50 v:v).

Data set [8] concerns K. pneumoniae 1109. In words: Murine acute systemic infection model. As to conditions: Murine acute systemic infection vs. K. pneumoniae 1109; oral BID; survival day four post-infection; repeat experiments.
Data set [9] has as its system S. pneumoniae 1095. In words: Murine acute systemic infection model. The conditions noted are these: Murine acute systemic infection vs. S. pneumoniae 1095; oral BID; survival day four post-infection; repeat experiments.
In data set [10] the test system is S. pneumoniae 1095. In words: Murine respiratory tract infection model. The conditions noted are these: Murine respiratory tract infection vs. S. pneumoniae 1095; oral BID for two days from 18 h post-infection; survival day ten; repeat experiments.
The test system of data set [11] is H. influenzae BLNAR. Put plainly: Gerbil otitis media model. As to conditions: Gerbil otitis media vs. H. influenzae BLNAR, oral TID for two days from 18 h post-infection, bacterial levels in middle ear fluid day four, repeat experiments.
Data set [12] deals with K. pneumoniae 6485. Put plainly: Murine acute systemic infection model. As to conditions: Murine acute systemic infection vs. K. pneumoniae 6485; oral BID; survival day four post-infection; repeat experiments.
Data set [13] deals with porcine pancrelipase (PPE). In words: Stability in the presence of porcine pancrelipase (PPE). The format is in vitro ADME. As to conditions: ku-zyme Lot 1; 50 μM substrate, pH 7.4, 37° C.
For data set [14] the following is noted: humans; given orally as a mixture of two stereoisomers; Foulds et al.; cited from earlier work.

≈ marks a conversion by molar mass, not a printed value. Where “and” joins values, the source holds several entries; their conditions need not be identical. Equal values may be shown once. Read-outs that look alike come from different tables or passages of the source.

The term half-life denotes the time needed for the level to fall by half in the phase considered. What is called Km is the concentration of substrate that gives half-maximal velocity. Consider `C[C@@H](O)[C@H]1C(=O)N2C(C(=O)OCOC(=O)C(C)(C)C)=C(S[C@H]3CC[S@@+]([O-])C3)S[C@H]12` (racemic) [Compound B2, reference compound], for which the half-life at 50 µM in data set [1] (pH 7.4, ku-zyme Lot 1) was 11.6 min; in data set [1] (pH 7.4, ku-zyme lot 2), 19.6 min. The “HIJ Clint (avg)” value in data set [2] is reported as 0.09 mL/min. For the same compound, the results for the fraction absorbed in data set [3] (sulopenem equivalent dose 205 mg) and in data set [3] (sulopenem equivalent dose 409 mg) were 38.5% and 33.5%, respectively. In addition, the Km in data set [4] came out at 40 µM.
As for `CCC(CC)C(=O)O` [2-ethylbutyric acid], the “change in plasma carnitine” value in data set [5] is given as “statistically insignificant changes in plasma carnitine”. Further, the “clearance of radioactivity, fold faster than pivalic acid” value in [6] came to 4.5 fold.
As a reminder, the solubility is the concentration that dissolves in the medium under given conditions. High values mean much dissolved substance, low ones little dissolved substance. Consider `CCOC(C)(C)C(=O)OCOC(=O)C1=C(S[C@H]2CC[S@@+]([O-])C2)S[C@@H]2[C@@H]([C@@H](C)O)C(=O)N12` [Compound 2, (2-Ethoxy-2-methyl-1-oxopropoxy)methyl (5R,6S)-6-[(1R)-1-hydroxyethyl]-7-oxo-3-[[(1R,3S)-tetrahydro-1-oxido-3-thienyl]thio]-4-thia-1-azabicyclo[3.2.0]hept-2-ene-2-carboxylate], for which the half-life at 50 µM in data set [1] (pH 7.4, ku-zyme Lot 1) was 19.1 min. The same compound yielded a solubility in data set [7] of 2900 µg/mL (≈ 5870 µM). In data set [2], the “HIJ Clint (avg)” value is given as 0.13 mL/min. In addition, the PD50 in [8] was 12.5 mg/kg and 16.2 mg/kg; in data set [9], 7.9 mg/kg and 6.3 mg/kg and 11.0 mg/kg; in data set [10], 19.7 mg/kg and 38.5 mg/kg. In addition, in data set [4], the Km stood at 105 µM.
A word on the ED50: it is the midpoint of the dose-response relation. The low end stands for an effect at a small dose, the high end for a need for a large dose. For the compound `C[C@@H](O)[C@H]1C(=O)N2C(C(=O)OCOC(=O)OC3CCC(C)(C)CC3)=C(S[C@H]3CC[S@@+]([O-])C3)S[C@H]12` [Compound A], the half-life at 50 µM is 3.9 ± 1.1 min in [1] (pH 7.4, ku-zyme Lot 1) and 6.3 min in [1] (pH 7.4, ku-zyme lot 2). Also, the solubility in data set [7] was 136 µg/mL (≈ 255 µM). Moreover, in data set [2], the “HIJ Clint (avg)” value amounted to 0.38 mL/min. Besides, the 50% effective dose (ED50) in [11] is 8.7 mg/kg; in data set [11] (Haemophilus influenzae, in Meriones unguiculatus, po), 6.9 mg/kg. For the same compound, the PD50 in data set [8] was 10.1 mg/kg and 15.3 mg/kg; in data set [12], 40.7 mg/kg; in data set [9], 9.0 mg/kg and 15.3 mg/kg; in data set [10] it was 17.8 mg/kg and 20.8 mg/kg. Besides, the Km in data set [4] was found to be 300 µM.
As to `C[C@@H](O)[C@H]1C(=O)N2C(C(=O)OCOC(=O)C(C)(C)C)=C(S[C@H]3CC[S@@+]([O-])C3)S[C@H]12` [Compound B1, reference compound], in data set [1] (pH 7.4, ku-zyme lot 2), the half-life at 50 µM came out at 22.5 min. This compound also had a solubility in [7] of 389 µg/mL (≈ 839 µM). In addition, the “HIJ Clint (avg)” value in [2] is 0.11 mL/min. Further, the PD50 in data set [12] is >100 mg/kg. For the same compound, the Km in [4] stood at 29 µM.
As to `CCC(CC)(CC)C(=O)OCOC(=O)C1=C(S[C@H]2CC[S@@+]([O-])C2)S[C@@H]2[C@@H]([C@@H](C)O)C(=O)N12` [Compound C], in [1] (pH 7.4, ku-zyme Lot 1), the half-life at 50 µM worked out at 21.1 min.
For `CCCC(C)(C)C(=O)OCOC(=O)C1=C(S[C@H]2CC[S@@+]([O-])C2)S[C@@H]2[C@@H]([C@@H](C)O)C(=O)N12` [Compound I], in [1] (pH 7.4, ku-zyme Lot 1), the half-life at 50 µM turned out to be 14.4 min.
As to `CC(C)CC(=O)OCOC(=O)C1=C(S[C@H]2CC[S@@+]([O-])C2)S[C@@H]2[C@@H]([C@@H](C)O)C(=O)N12` [E], the half-life at 50 µM in data set [1] (pH 7.4, ku-zyme Lot 1) came out at 6.4 min.
In the case of `CC(C)C(=O)OCOC(=O)C1=C(S[C@H]2CC[S@@+]([O-])C2)S[C@@H]2[C@@H]([C@@H](C)O)C(=O)N12` [F], the half-life at 50 µM in data set [1] (pH 7.4, ku-zyme Lot 1) worked out at 4.7 min.
Consider `CC(=O)OCOC(=O)C1=C(S[C@H]2CC[S@@+]([O-])C2)S[C@@H]2[C@@H]([C@@H](C)O)C(=O)N12` [G], for which, in data set [1] (pH 7.4, ku-zyme Lot 1), the half-life at 50 µM stood at 21.2 min. In addition, the “HIJ Clint (avg)” value in data set [2] came out at 0.18 mL/min. Moreover, in [4], the Km worked out at 390 µM.
For the compound `CCC(C)C(=O)OCOC(=O)C1=C(S[C@H]2CC[S@@+]([O-])C2)S[C@@H]2[C@@H]([C@@H](C)O)C(=O)N12` (stereo partly shown) [H], the half-life at 50 µM in [1] (pH 7.4, ku-zyme Lot 1) is 6.8 min.
Still for that read-out and setting: then `CCC(C)(C)C(=O)OCOC(=O)C1=C(S[C@H]2CC[S@@+]([O-])C2)S[C@@H]2[C@@H]([C@@H](C)O)C(=O)N12` [J], with 11 min; and `CCCCC(C)(C)C(=O)OCOC(=O)C1=C(S[C@H]2CC[S@@+]([O-])C2)S[C@@H]2[C@@H]([C@@H](C)O)C(=O)N12` [K], with 14.5 min; and `CCC(C)(CC)C(=O)OCOC(=O)C1=C(S[C@H]2CC[S@@+]([O-])C2)S[C@@H]2[C@@H]([C@@H](C)O)C(=O)N12` [M], with 39.4 min.
As to `CC(C)C(C)(C)C(=O)OCOC(=O)C1=C(S[C@H]2CC[S@@+]([O-])C2)S[C@@H]2[C@@H]([C@@H](C)O)C(=O)N12` [N], in data set [1] (pH 7.4, ku-zyme Lot 1), the half-life at 50 µM was determined as 11.1 min.
On to `CCCC(CCC)C(=O)OCOC(=O)C1=C(S[C@H]2CC[S@@+]([O-])C2)S[C@@H]2[C@@H]([C@@H](C)O)C(=O)N12` [O], for which, in data set [1] (pH 7.4, ku-zyme Lot 1), the half-life at 50 µM was determined as 8.3 min.
On to `CCC(C)C(=O)OCOC(=O)C1=C(S[C@H]2CC[S@@+]([O-])C2)S[C@@H]2[C@@H]([C@@H](C)O)C(=O)N12` (stereo partly shown) [P], for which the “PPE Half Life” value in data set [13] is 4.2 min.
For `CCCC(C)C(=O)OCOC(=O)C1=C(S[C@H]2CC[S@@+]([O-])C2)S[C@@H]2[C@@H]([C@@H](C)O)C(=O)N12` (stereo partly shown) [Q], the half-life at 50 µM in data set [1] (pH 7.4, ku-zyme Lot 1) stood at 4.8 min.
On the same count and under the same terms, then `CCC(C(=O)OCOC(=O)C1=C(S[C@H]2CC[S@@+]([O-])C2)S[C@@H]2[C@@H]([C@@H](C)O)C(=O)N12)C(C)C` (stereo partly shown) [R], with 5.3 min; and `C[C@@H](O)[C@H]1C(=O)N2C(C(=O)OCOC(=O)C(C)(C)C(C)(C)C)=C(S[C@H]3CC[S@@+]([O-])C3)S[C@H]12` [S], with 6.3 min; and `CC(C)C(C(=O)OCOC(=O)C1=C(S[C@H]2CC[S@@+]([O-])C2)S[C@@H]2[C@@H]([C@@H](C)O)C(=O)N12)C(C)C` [T], with 7.7 min.
As to `CC(C)CC(CC(C)C)C(=O)OCOC(=O)C1=C(S[C@H]2CC[S@@+]([O-])C2)S[C@@H]2[C@@H]([C@@H](C)O)C(=O)N12` [U], in [1] (pH 7.4, ku-zyme Lot 1), the half-life at 50 µM turned out to be 6.4 min.
On the same count and under the same terms, the figure for `CC(C)CC(C)(C)C(=O)OCOC(=O)C1=C(S[C@H]2CC[S@@+]([O-])C2)S[C@@H]2[C@@H]([C@@H](C)O)C(=O)N12` [V] is 10.5 min.
Same read-out and setting: the figure for `C[C@@H](O)[C@H]1C(=O)N2C(C(=O)OCOC(=O)CC(C)(C)C)=C(S[C@H]3CC[S@@+]([O-])C3)S[C@H]12` [W] is 7.6 min.
For the compound `CCC(=O)OCOC(=O)C1=C(S[C@H]2CC[S@@+]([O-])C2)S[C@@H]2[C@@H]([C@@H](C)O)C(=O)N12` [X], the half-life at 50 µM in [1] (pH 7.4, ku-zyme Lot 1) was found to be 4.7 min.
As to `C[C@@H](O)[C@H]1C(=O)N2C(C(=O)OCOC(=O)C(C(C)(C)C)C(C)(C)C)=C(S[C@H]3CC[S@@+]([O-])C3)S[C@H]12` [Y], the half-life at 50 µM in data set [1] (pH 7.4, ku-zyme Lot 1) stood at 8 min.
As for `CC(O)C1C(=O)N2C(C(=O)OCOC(=O)C(C)(C)C)=C(SC3CC[S+]([O-])C3)SC12` (stereo not shown) [sulopenem POM ester], the “oral bioavailability (in words)” value in data set [14] is “orally bioavailable in humans”.
